This note sets out measurements from US6482799B1, “Self-preserving multipurpose ophthalmic solutions incorporating a polypeptide antimicrobial” (The Regents of the University of California, priority 1999, dated 2002).

Molecules are shown by their SMILES.

What all share (assay type): cell-based, Pseudomonas aeruginosa
In assay [1] the test system is P. aeruginosa (ATCC 27853). The assay is described as follows: Protocol 3 time-dependent antimicrobial activity at one dose level. The note with it: for Bacterial growth, Buffer and L-indolicidin 50 μg/ml: 100 mM sodium phosphate buffer. The procedure: The objective of this protocol is to establish a procedure for determining the antimicrobial activity of indolicidin (e.g., L-IND) at 50 μg/ml over an extended exposure time up to 24 hours at room temperature. It is believed that this procedure more closely mimics the recommended use of lens-care products.
Exposure of the test organism to indolicidin occurs in a buffered solution for up to 24 hours with sampling for viability at different time intervals. Polypropylene 96-well microtiter plates and microcentrifuge tubes are used for exposure and dilution of indolicidin, respectively.
The following materials are used: sterile glass tubes containing 5 ml of Mueller-Hinton Broth (MHB), Mueller-Hinton agar plates, sterile 96-well polypropylene microtiter plates, and sterile polypropylene microcentrifuge tubes.
One or more of the following microorganisms are used in assays using this protocol or modification of this protocol: Pseudomonas aeruginosa (ATCC 9027), Pseudomonas aeruginosa (ATCC 27853), and S. aureus (ATCC 6538).
Five 5 ml of MHB tubes are innoculated with the tester strain(s) from MHA plates and grown overnight at 37° C. on a shaker (180 rpm). A micropipet tip is prewet for at least 2 minutes with 100 μl of the stock solution of indolicidin (e.g., L-IND). The test article is dispensed back in the stock solution vial and the pipette is reset to a volume of 10 μl. Polypropylene microcentrifuge tubes are used to dilute the stock of indolicidin (10 mg/ml) 10-fold in sterile water. To obtain a 10× solution of indolicidin with a dose level equivalent to 50 μg/ml dose level dilute 10 μl of the stock solution of indolicidin in 90 μl of sterile water. (The concentration of indolicidin in the final exposure volume of 100 μl will be 5 μg when 10 μl of the 10× solution is added to 100 μl of bacterial suspension). […]
Survival is determined by counting the colonies appearing on plates after overnight incubation at 37° C. The results are expressed as CFU/ml and survival is expressed as the percent of the bacteria that survived the treatment. […]

Assay [2] relates to P. aeruginosa (ATCC 27853). The description is as above.
Assay [3] has as its system P. aeruginosa strain (ATCC 9027). The assay can be described thus: Protocol 1 kill curve / MIC, 1 hour at 37° C. To be noted: 6.25 μg/ml, 10 mM sodium phosphate buffer. The method, then:
This protocol is used to develop dose-response (kill) curves to calculate the minimal inhibitory concentration of an indolicidin (e.g., L-indolicidin (L-IND)) when formulated in a commercially available phosphate buffered saline (PBS) solution. In addition, for comparative purposes, kill curves are established for the following three commonly available commercial lens-care products containing different preservatives:
The stock solutions are diluted in a 2-fold fashion by transferring 1 ml of each stock solution to 1 ml of appropriate diluent in sterile glass tubes (100×13 mm). Twelve additional 2-fold dilutions are made by transferring 1 ml aliquots of each dilution to 1 ml diluent. The diluent for all commercial lens-care products is PBS. […]
Viable counts of the bacteria are performed by 10-fold serial dilutions in sterile PBS and by plating 0.1 ml aliquots on nutrient agar plates. […] The plates are incubated overnight at 37° C. and colonies are counted and recorded. […]
Survival is expressed as number of surviving bacteria (CFU/ml) for each dilution of the test article and control solutions. The lowest dose of the test article that results in complete kill of the test organism, compared to the non-exposed control, is determined to be the MIC value. […]

`CC[C@H](C)[C@H](N)C(=O)N[C@@H](CC(C)C)C(=O)N1CCC[C@H]1C(=O)N[C@@H](Cc1c[nH]c2ccccc12)C(=O)N[C@@H](CCCCN)C(=O)N[C@@H](Cc1c[nH]c2ccccc12)C(=O)N1CCC[C@H]1C(=O)N[C@@H](Cc1c[nH]c2ccccc12)C(=O)N[C@@H](Cc1c[nH]c2ccccc12)C(=O)N1CCC[C@H]1C(=O)N[C@@H](Cc1c[nH]c2ccccc12)C(=O)N[C@@H](CCCNC(=N)N)C(=O)N[C@@H](CCCNC(=N)N)C(N)=O` [L-indolicidin, H2N-ILPWKWPWWPWRR-CONH2]: the survival entry is “no survival” in assay [1] (50 μg/ml, 100 mM sodium phosphate buffer pH 7.4, all time points 0-24 hours); 2.4 × 10^6 CFU/ml in assay [2] (50 μg/ml, 10 mM sodium phosphate buffer, exposure time 0 hr); 1.6 × 10^6 CFU/ml in assay [2] (50 μg/ml, 10 mM sodium phosphate buffer, exposure time 1 hr); 1.1 × 10^5 CFU/ml in assay [2] (50 μg/ml, 10 mM sodium phosphate buffer, exposure time 2 hr); 0 CFU/ml in assay [2] (50 μg/ml, 10 mM sodium phosphate buffer, exposure time 4 hr); 0 CFU/ml in assay [2] (50 μg/ml, 10 mM sodium phosphate buffer, exposure time 6 hr). Also, the survival was 0 CFU/ml in assay [2] (50 μg/ml, 10 mM sodium phosphate buffer, exposure time 12 hr); 100% in assay [2] (50 μg/ml, 10 mM sodium phosphate buffer, up to 15 minutes); “no detectable survival” in assay [2] (50 μ/ml, 10 mM sodium phosphate buffer, after 4 hours exposure); 59% in assay [3]. For the same compound, the “Bacterial growth, Buffer and L-indolicidin 50 μg/ml” value in assay [1] (incubation time 0 hr) and in assay [1] (incubation time 24 hr) was 0 in each case. Besides, in assay [2] (50 μg/ml, 10 mM sodium phosphate buffer, as early as after 1 minute exposure, initial 2.0×10^6 CFU/ml), the log cell reduction was approximately 6 log. Further, the killing result in assay [2] (50 μg/ml, 100 mM sodium phosphate buffer, exposures of between 15 and 60 min) is reported as “virtually complete killing”.
